A melting point compilation (Tetko et al.)

| melting point | SMILES |
| --- | --- |
| 103 to 105 °C | O=Cc1csc(-c2ccc(C(F)(F)F)cc2)n1 |
| 160 to 165 °C | Cc1[nH]c2c([N+](=O)[O-])cccc2c1C |
| 14.5 °C | COc1ccc(O)c(C=O)c1 |
| 202 °C | Cc1ccccc1N1CSc2nnc(-c3cccnc3)n2C1 |
| 230 °C | COC(=O)C1C2CC3c4[nH]c5ccccc5c4CCN3CC2CC(OC(=O)c2cc(OC)c(OC)c(OC)c2)C1OC (stereo not given) |
| 206 °C | O=C(O)c1cc2ccccc2[nH]1 |
| 141 to 144 °C | O=C(O)c1cc(F)c(Cl)cc1Cl |
| 273 to 275 °C | Cc1n[nH]c(C)c1C(=O)O |
| 127 to 129 °C | O=C(O)CSCCS(=O)(=O)c1ccc(Cl)cc1 |
| 58 to 61 °C | CC(=O)c1cc(Br)ccc1O |
| 191 °C | O=C(O)C=CC(=O)Nc1ccc(F)cc1F |
| 64 to 67 °C | COC(=O)[C@@H](C)Oc1ccc(O)cc1 |
| 24 to 27 °C | O=C(c1ccc(F)cc1)C(F)(F)F |
| 130 to 132 °C | O=C1c2ccccc2C2NCCCN12 (stereo not given) |
| 77 °C | Cl/C(=C\c1ccccc1)c1ccc2c3c(cccc13)CC2 |
| 49 to 50 °C | N#Cc1ccccc1CN1CCOCC1 |
| 84 °C | Cc1cccc(NC(=O)c2cncc(Cl)n2)c1 |
| 270 to 272 °C | O=C(O)c1ccc(C(=O)O)c(OC(F)(F)F)c1 |
| -101 °C | C=Cc1cccc(CC)c1 |
| 75 °C | c1ccc(C2=NOC(c3ccccc3)C2)cc1 (stereo not given) |

| melting point | SMILES |
| --- | --- |
| 174 to 183 °C | CC(=O)c1cc(Br)c(O)c(Br)c1 |
| 255 °C | O=C(C1=NN(c2ccccc2)C2C(=O)N(c3ccc(Br)cc3)C(=O)C12)c1ccc(Cl)cc1 (stereo not given) |
| 88 °C | O=C1c2ccccc2C(=O)C1(CN1CCOCC1)c1ccccc1 |
| 115 °C | CC(C)Oc1ccc2c(=O)c(-c3ccccc3)coc2c1 |
| 173 to 175 °C | COc1ccc(C2CC(c3ccc4ccccc4c3)=NN2C(N)=O)cc1 (stereo not given) |
| 36 to 39 °C | CCOC(=O)c1sc(-c2ccccc2)nc1C |
| 189 °C | COc1ccc(C=NNC(=O)c2ccncc2)cc1OC |
| 96 °C | CC(=O)c1cccc(O)c1 |
| 170 °C | COc1cc(O)c(C(=O)c2ccccc2)cc1S(=O)(=O)O |
| 78 to 79 °C | Brc1ccc(-c2cnco2)cc1 |
| 160 °C | O=C1C=CC(=Nc2ccc(O)cc2)C=C1 |
| 215 °C | COC(=O)c1cc2c(=O)oc3ccccc3c2nc1C |
| 209 °C | O=C(C1=NOC2C(=O)N(c3ccccc3[N+](=O)[O-])C(=O)C12)c1ccco1 (stereo not given) |
| 75 °C | O=[N+]([O-])c1ccccc1N=C=S |
| 40 °C | N#CC1=Cc2ccccc2C1 |
| 83.5 °C | ON=Cc1ccc(F)cc1 |
| 132 °C | CCOc1ccc2cc(O)c(O)cc2c1 |
| 47.5 °C | CC(C=Cc1ccccc1)c1ccccc1 (stereo not given) |
| 93.5 °C | Nc1cccc(-c2cccc(N)c2)c1 |
| 86 °C | COc1cccc(N(C)C(=S)Oc2cccc(C(C)(C)C)c2)n1 |

| melting point | SMILES |
| --- | --- |
| 150 °C | O=C(O)Cc1cn(-c2ccccc2)nc1-c1ccc(Cl)cc1 |
| 201 to 202 °C | Cc1c(C(=O)O)cnn1-c1ccc(Cl)cc1 |
| 136 °C | O=C(C1CCCCC1)N1CC(=O)N2CCc3ccccc3C2C1 (stereo not given) |
| 237 to 238 °C | Cc1nc(-c2cnccn2)sc1C(=O)O |
| 96 to 100 °C | O=C(O)C(c1ccccc1)C1CCCC1 (stereo not given) |
| 46 °C | N#Cc1ccc(F)cc1F |
| 206 to 215 °C | Sc1nccc(-c2cccs2)n1 |
| 83 to 84 °C | O=[N+]([O-])c1cccc2c(/C=N\c3ccccc3)cccc12 |
| 151 to 153 °C | COC(=O)c1cc2ccccc2[nH]1 |
| 85 °C | O=C(OCC1c2ccccc2-c2ccccc21)Oc1c(F)c(F)c(F)c(F)c1F |
| 185 to 190 °C | O=C(O)CCCc1ccc2ccc3cccc4ccc1c2c34 |
| 140 °C | COc1ccc(-c2onc(C(=O)c3ccc(Br)cc3)c2S(=O)(=O)c2ccccc2)cc1 |
| 96 °C | Clc1ccc2nc(Cl)sc2c1 |
| 114 °C | O=C1C=CC(=O)C(c2ccccc2)=C1 |
| 129 to 131 °C | NC(=S)c1ccc(F)c(Cl)c1 |
| 103 °C | O=C(NCCCl)c1ccccc1 |
| 81 °C | Cc1cccc(Cl)c1C#N |
| 200 to 201 °C | CC1=C(c2ccccc2)c2ccccc2/C1=N/NC(N)=O |

The next lines start with the compound.

| SMILES | melting point |
| --- | --- |
| CC(C)(C)[C@@H]1NC(=O)CNC1=O | 300 °C |
| COc1ccc2nc(NN)nnc2c1 | 238 to 240 °C |
| O=c1c2ccccc2[nH]c(=S)n1-c1ccc(F)cc1 | 337 to 339 °C |
| Cc1ccc(-c2ccc(C)c(C)c2)cc1C | 76 °C |
| Clc1cc(Cl)c2oc3c(Cl)c(Cl)c(Cl)cc3c2c1 | 219 °C |
| C[Si](C)(Cl)O[Si](C)(C)Cl | -37.5 °C |
| N#CC1=C(N)Oc2[nH]nc(C(F)(F)F)c2C1c1ccc(O)cc1 (stereo not given) | 197 °C |
| CC(C)(C)OC(=O)N1CCN(c2ccc(CO)cc2)CC1 | 109 to 111 °C |
| CCCCNC(=O)OCC(C)(CCC)COC(N)=O (stereo not given) | 50 °C |
| CC(C)(C#N)OC1OC(CO)C(O)C(O)C1O (stereo not given) | 145 °C |
| COC(=O)NS(=O)(=O)c1ccc(N)cc1 | 230 °C |
| O=C(NC(=O)c1c(F)cccc1F)Nc1ccc(OC(F)(F)C(F)OC(F)(F)F)c(Cl)c1 (stereo not given) | 178 °C |
| O=Cc1scc2c1OCCO2 | 138 to 140 °C |
| CC1=CCC(C)C1=NNc1ccc([N+](=O)[O-])cc1[N+](=O)[O-] (stereo not given) | 198 °C |
| CC12CCCC1C1CCC3CC(OCc4ccccc4)CCC3(C)C1CC2 (stereo not given) | 148 °C |
| O=S1(=O)c2ccccc2-c2ccccc21 | 231 to 236 °C |
| O=[N+]([O-])c1ccccc1C=Cc1cc(/C=C/c2ccccc2[N+](=O)[O-])c([N+](=O)[O-])cc1[N+](=O)[O-] | 291 °C |
| CCOP(=S)(OCC)Oc1cnccn1 | -1.7 °C |
| FC(F)(F)c1cncc(C(F)(F)F)c1 | 37 °C |
| CN(C)c1ccc(N=C=S)cc1 | 69 to 71 °C |
| ClC(Cl)N(C(Cl)Cl)C(Cl)Cl | 170 to 173 °C |
| CCCCC(C)CC(O)C=CC1C(O)CC(=O)C1CCCCC=CC(=O)O (stereo not given) | 97 °C |
| O=C1CCC(C(=O)O)=NN1 | 199 to 200 °C |

| SMILES | melting point |
| --- | --- |
| CCCCCCCCCC(C)C | -47 °C |
| C(=C/c1ccc(/N=C/c2ccccc2)cc1)/c1ccc(/N=C/c2ccccc2)cc1 | 104 °C |
| BrCc1ccc(I)cc1 | 80 °C |
| O=C(Oc1c(F)c(F)c(F)c(F)c1F)c1ccc(OC2CCOCC2)nc1 | 114 to 118 °C |
| Cc1cc(I)c(C)c(C)c1C | 31 °C |
| Nc1ccc(C/C(=N/O)c2ccc(N)cc2)cc1 | 146 to 147 °C |
| CC1(C)C(C=Cc2cc([N+](=O)[O-])cc([N+](=O)[O-])c2[O-])=[N+](Cc2ccccc2)c2ccccc21 | 244 to 246 °C |
| CS(=O)(=O)c1ccc(OC(F)(F)F)cc1 | 67 °C |
| C#CCCCCCC | -60 °C |
| CC(=O)OC[C@@H](OC(C)=O)[C@H](OC(C)=O)[C@H](OC(C)=O)[C@@H](OC(C)=O)C(=O)CBr | 123 to 125 °C |
| CC(C)OC(=O)C1=C2c3ncccc3ON2C(Cl)C(Cl)C1Cl (stereo not given) | 98 °C |
| CC(C)N1C(=O)N(c2ccccc2)CSC1=NC(C)(C)C | 105 °C |
| C[C@H](Cl)C(=O)O | 4 °C |
| COc1c(Cl)c(Cl)cc(Cl)c1Cl | 88.5 °C |
| Nc1ccc2c(c1)OCCCO2 | 81 to 82 °C |
| CCN1CCN(C(=O)NC(C(=O)NC2C(=O)N3C(C(=O)O)=C(CSc4nnnn4C)CSC23)c2ccc(O)cc2)C(=O)C1=O (stereo not given) | 169 °C |
| CCCCCCCCn1c(=O)c2cc3c(OC)c4cc5c(=O)n(CCCCCCCC)c(=O)c5cc4c(OC)c3cc2c1=O | 238 °C |
| COC(=O)C1=C(C(=O)OC)C2(COC(=O)C(C)NC(C)=O)c3ccccc3C1c1ccccc12 (stereo not given) | 180 °C |
| O=S(=O)(O)CCCNC(CO)(CO)CO | 240 °C |
| N#CC1(O)CCCCC1 | 35 °C |
| Nc1nn2c(C(F)(F)F)cc(=O)[nH]c2c1/N=N/c1c(Br)cc(Br)cc1Br | 92 to 94 °C |
| N#Cc1cc(F)cc(Cl)c1 | 57 °C |
| O=S(=O)(O)CCCN1CCOCC1 | 284 °C |

| SMILES | melting point |
| --- | --- |
| NCCc1cccc(CCO)c1 | 264 °C |
| C=C1C(C)CCC2(C)C3=C(C(=O)C4(CC4C)C(OC(C)=O)C3=O)C(OC(C)=O)C(O)C12 (stereo not given) | 233 °C |
| COc1ccc(C(F)(F)F)cc1N | 58 °C |
| O=C1C=CC(=O)c2c(O)ccc(O)c21 | 237 °C |
| O=P(O)(O)C(Cl)(Cl)P(=O)(O)O | 250 °C |
| CN(C)C(=S)Sc1ccc([N+](=O)[O-])cc1[N+](=O)[O-] | 152 °C |
| COc1ccc2c(c1)CC(c1ccc([N+](=O)[O-])cc1)OC2=O (stereo not given) | 176 °C |
| CCCC=CCCC | -90 °C |
| OC[C@H]1O[C@H](CO)[C@@H](O)[C@@H]1O | 100 to 103 °C |
| Cc1nccc2c1[nH]c1ccccc12 | 236 °C |
| NC(=S)c1cnccc1C(F)(F)F | 153 to 156 °C |
| COc1ccc(C(C)NCC(OC)OC)cc1O (stereo not given) | 88 °C |
| c1ccc(-c2nc(-c3ccccn3)nc(-c3ccccn3)n2)nc1 | 250 °C |
| CCOC(=O)[C@@H]1CC=CC[C@@H]1N (relative stereo) | 99 to 103 °C |
| CCOC(=O)c1cc(C(C)(C)C)nn1Cc1c(C)cc(C)cc1C | 72 to 74 °C |
| Cn1nc(C(=O)O)c2ccccc21 | 213 to 221 °C |
| Brc1ccc2[nH]c3ccc(Br)cc3c2c1 | 212 °C |
| CC1CCCC(C)(C)C1=O (stereo not given) | -31.8 °C |
| O=C(CBr)c1ccnc(Cl)c1 | 55 to 56.5 °C |
| COC(=O)C12C=CC(CC1)C1C(=O)OC(=O)C12 (stereo not given) | 116 to 118 °C |
| CC(=O)CCn1cc([N+](=O)[O-])nc1C | 98 to 100 °C |
